# In ChEMBL document CHEMBL3885861, “Open TG-GATES”:
# Species: Rattus norvegicus
# Assay: Open TG-GATES - Regimen: Daily Repeat
# Format: toxicity, organism-based, Sprague-Dawley
# Design: regimen Daily Repeat, gender Male, age 6 weeks
# Details: in vivo, po, 30 mg/kg, route gavage, dose level Low; for APTT / Bas / Eos / Fbg / Hb / Ht / Lym / MCH / MCHC / MCV / Mono / Neu / PT / Plat / RBC / Ret / WBC: tissue Blood; for KIDNEY_L / KIDNEY_R / KIDNEY_TOTAL: tissue Kidney; for LIVER: tissue Liver; for A/G / ALP / ALT / AST / BUN / CRE / Ca / Cl / DBIL / GLC / IP / K / LDH / Na / PL / RALB / TBIL / TC / TG / TP / gamma-GTP: tissue Plasma
smiles,measurement,setting,value
Brc1ccccc1 [BROMOBENZENE],TERMINAL_BW,"72 h, time 3 day",211.4 g
same,APTT,"72 h, time 3 day",16.2 s
same,Bas,"72 h, time 3 day",0%
same,Eos,"72 h, time 3 day",1%
same,Fbg,"72 h, time 3 day",274.2 mg/dL
same,Hb,"72 h, time 3 day",13.2 g/dL
same,Ht,"72 h, time 3 day",38.9%
same,Lym,"72 h, time 3 day",76.6%
same,MCH,"72 h, time 3 day",21.2 pg
same,MCHC,"72 h, time 3 day",34%
same,MCV,"72 h, time 3 day",62.4 fL
same,Mono,"72 h, time 3 day",4.2%
same,Neu,"72 h, time 3 day",17.8%
same,PT,"72 h, time 3 day",12 s
same,Plat,"72 h, time 3 day",113.4 x10_4/uL
same,RBC,"72 h, time 3 day",624.8 x10_4/ul
same,Ret,"72 h, time 3 day",7.4%
same,WBC,"72 h, time 3 day",117.5 x10_2/uL
same,KIDNEY_L,"72 h, time 3 day",0.9 g
same,KIDNEY_R,"72 h, time 3 day",0.9 g
same,KIDNEY_TOTAL,"72 h, time 3 day",1.8 g
same,LIVER,"72 h, time 3 day",10.6 g
same,A/G,"72 h, time 3 day",0.9
same,ALP,"72 h, time 3 day",1588.2 IU/L
same,ALT,"72 h, time 3 day",54.2 IU/L
same,AST,"72 h, time 3 day",70.2 IU/L
same,BUN,"72 h, time 3 day",13.8 mg/dL
same,CRE,"72 h, time 3 day",0.2 mg/dL
same,Ca,"72 h, time 3 day",10.4 mg/dL
same,Cl,"72 h, time 3 day",105.2 meq/L
same,DBIL,"72 h, time 3 day",0.012 mg/dL
same,GLC,"72 h, time 3 day",182 mg/dL
same,IP,"72 h, time 3 day",7.3 mg/dL
same,K,"72 h, time 3 day",4.1 meq/L
same,LDH,"72 h, time 3 day",77 IU/L
same,Na,"72 h, time 3 day",142 meq/L
same,PL,"72 h, time 3 day",154 mg/dL
same,RALB,"72 h, time 3 day",2.6 g/dL
same,TBIL,"72 h, time 3 day",0.05 mg/dL
same,TC,"72 h, time 3 day",84.6 mg/dL
same,TG,"72 h, time 3 day",76 mg/dL
same,TP,"72 h, time 3 day",5.6 g/dL
same,gamma-GTP,"72 h, time 3 day",1.2 IU/L
same,TERMINAL_BW,"[…], time 7 day",250.4 g
same,TERMINAL_BW,"[…], time 14 day",301.3 g
same,TERMINAL_BW,"[…], time 28 day",378.5 g
same,APTT,"[…], time 7 day",16.1 s
same,Bas,"[…], time 7 day",0%
same,Eos,"[…], time 7 day",1%
same,Fbg,"[…], time 7 day",272.4 mg/dL
same,Hb,"[…], time 7 day",12.9 g/dL
same,Ht,"[…], time 7 day",37.6%
same,Lym,"[…], time 7 day",78%
same,MCH,"[…], time 7 day",21.3 pg
same,MCHC,"[…], time 7 day",34.4%
same,MCV,"[…], time 7 day",62 fL
same,Mono,"[…], time 7 day",2.6%
same,Neu,"[…], time 7 day",18%
same,PT,"[…], time 7 day",12.7 s
same,Plat,"[…], time 7 day",117.9 x10_4/uL
same,RBC,"[…], time 7 day",606.8 x10_4/ul
same,Ret,"[…], time 7 day",6.2%
same,WBC,"[…], time 7 day",100.6 x10_2/uL
same,APTT,"[…], time 14 day",16 s
same,Bas,"[…], time 14 day",0%
same,Eos,"[…], time 14 day",0.8%
same,Fbg,"[…], time 14 day",316.2 mg/dL
same,Hb,"[…], time 14 day",14.2 g/dL
same,Ht,"[…], time 14 day",41.2%
same,Lym,"[…], time 14 day",81.6%
same,MCH,"[…], time 14 day",20.5 pg
same,MCHC,"[…], time 14 day",34.5%
same,MCV,"[…], time 14 day",59.2 fL
same,Mono,"[…], time 14 day",2.6%
same,Neu,"[…], time 14 day",14.4%
same,PT,"[…], time 14 day",11.7 s
same,Plat,"[…], time 14 day",116 x10_4/uL
same,RBC,"[…], time 14 day",696.6 x10_4/ul
same,Ret,"[…], time 14 day",4.2%
same,WBC,"[…], time 14 day",87.7 x10_2/uL
same,APTT,"[…], time 28 day",16.4 s
same,Bas,"[…], time 28 day",0.2%
same,Eos,"[…], time 28 day",1.2%
same,Fbg,"[…], time 28 day",305.8 mg/dL
same,Hb,"[…], time 28 day",15 g/dL
same,Ht,"[…], time 28 day",42.8%
same,Lym,"[…], time 28 day",75.6%
same,MCH,"[…], time 28 day",19.7 pg
same,MCHC,"[…], time 28 day",35%
same,MCV,"[…], time 28 day",56.2 fL
same,Mono,"[…], time 28 day",3%
same,Neu,"[…], time 28 day",19%
same,PT,"[…], time 28 day",12.6 s
same,Plat,"[…], time 28 day",103.7 x10_4/uL
same,RBC,"[…], time 28 day",762.2 x10_4/ul
same,Ret,"[…], time 28 day",2.7%
same,WBC,"[…], time 28 day",101.5 x10_2/uL
same,KIDNEY_L,"[…], time 7 day",1 g
same,KIDNEY_R,"[…], time 7 day",1 g
same,KIDNEY_TOTAL,"[…], time 7 day",2 g
same,KIDNEY_L,"[…], time 14 day",1.2 g
same,KIDNEY_R,"[…], time 14 day",1.2 g
same,KIDNEY_TOTAL,"[…], time 14 day",2.4 g
same,KIDNEY_L,"[…], time 28 day",1.3 g
same,KIDNEY_R,"[…], time 28 day",1.3 g
same,KIDNEY_TOTAL,"[…], time 28 day",2.7 g
same,LIVER,"[…], time 7 day",12.3 g
same,LIVER,"[…], time 14 day",14.5 g
same,LIVER,"[…], time 28 day",16.3 g
same,A/G,"[…], time 7 day",0.9
same,ALP,"[…], time 7 day",1766.2 IU/L
same,ALT,"[…], time 7 day",40.6 IU/L
same,AST,"[…], time 7 day",71 IU/L
same,BUN,"[…], time 7 day",14.4 mg/dL
same,CRE,"[…], time 7 day",0.2 mg/dL
same,Ca,"[…], time 7 day",11.1 mg/dL
same,Cl,"[…], time 7 day",105.2 meq/L
same,DBIL,"[…], time 7 day",0.01 mg/dL
same,GLC,"[…], time 7 day",195 mg/dL
same,IP,"[…], time 7 day",7 mg/dL
same,K,"[…], time 7 day",3.9 meq/L
same,LDH,"[…], time 7 day",109 IU/L
same,Na,"[…], time 7 day",143.4 meq/L
same,PL,"[…], time 7 day",143 mg/dL
same,RALB,"[…], time 7 day",2.7 g/dL
same,TBIL,"[…], time 7 day",0.042 mg/dL
same,TC,"[…], time 7 day",74.6 mg/dL
same,TG,"[…], time 7 day",84.4 mg/dL
same,TP,"[…], time 7 day",5.8 g/dL
same,gamma-GTP,"[…], time 7 day",1.4 IU/L
same,A/G,"[…], time 14 day",0.8
same,ALP,"[…], time 14 day",1573.2 IU/L
same,ALT,"[…], time 14 day",40 IU/L
same,AST,"[…], time 14 day",65 IU/L
same,BUN,"[…], time 14 day",15.2 mg/dL
same,CRE,"[…], time 14 day",0.2 mg/dL
same,Ca,"[…], time 14 day",11 mg/dL
same,Cl,"[…], time 14 day",105.6 meq/L
same,DBIL,"[…], time 14 day",0.01 mg/dL
same,GLC,"[…], time 14 day",191.6 mg/dL
same,IP,"[…], time 14 day",6.8 mg/dL
same,K,"[…], time 14 day",4.1 meq/L
same,LDH,"[…], time 14 day",84.8 IU/L
same,Na,"[…], time 14 day",143 meq/L
same,PL,"[…], time 14 day",158.2 mg/dL
same,RALB,"[…], time 14 day",2.8 g/dL
same,TBIL,"[…], time 14 day",0.038 mg/dL
same,TC,"[…], time 14 day",74.2 mg/dL
same,TG,"[…], time 14 day",159.4 mg/dL
same,TP,"[…], time 14 day",6.2 g/dL
same,gamma-GTP,"[…], time 14 day",0.8 IU/L
same,A/G,"[…], time 28 day",0.8
same,ALP,"[…], time 28 day",1032.4 IU/L
same,ALT,"[…], time 28 day",36 IU/L
same,AST,"[…], time 28 day",59.8 IU/L
same,BUN,"[…], time 28 day",15.8 mg/dL
same,CRE,"[…], time 28 day",0.2 mg/dL
same,Ca,"[…], time 28 day",10.7 mg/dL
same,Cl,"[…], time 28 day",105.8 meq/L
same,DBIL,"[…], time 28 day",0.016 mg/dL
same,GLC,"[…], time 28 day",190.2 mg/dL
same,IP,"[…], time 28 day",6 mg/dL
same,K,"[…], time 28 day",3.8 meq/L
same,LDH,"[…], time 28 day",58.6 IU/L
same,Na,"[…], time 28 day",142.8 meq/L
same,PL,"[…], time 28 day",152.2 mg/dL
same,RALB,"[…], time 28 day",2.9 g/dL
same,TBIL,"[…], time 28 day",0.034 mg/dL
same,TC,"[…], time 28 day",80.6 mg/dL
same,TG,"[…], time 28 day",141.4 mg/dL
same,TP,"[…], time 28 day",6.5 g/dL
same,gamma-GTP,"[…], time 28 day",1 IU/L
